Results: US10106534B2 (CELGENE QUANTICEL RESEARCH, INC., priority 2014, dated 2018)

What was measured:
JMJD2C = JMJD2C (Homo sapiens (Human), UniProt Q9H3R0); experiment: In vitro enzyme inhibition assay for JMJD2C activity (TR-FRET); format: biochemical
Method in brief: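 Baculovirus JMJD2C (AA 2-372), 0.3 nM, with 300 nM biotin-H3K9me3 peptide and 2 μM α-ketoglutarate in HEPES pH 7.3 containing Fe(II) and ascorbate, 30 min at room temperature, 11-point dilutions. H3K9me2 product by TR-FRET (Eu-antibody/streptavidin-APC, 665/615 ratio); IC50 fitted.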

[1] = tested on: KYSE-150 esophageal carcinoma cell line; experiment: In vitro cell-based assay: cellular proliferation via BrdU incorporation (ELISA); design: species or system human; conditions: Homo sapiens, KYSE-150, 168 hours compound incubation
Protocol: The primary cellular assay for JMJD2C inhibition is an assay which measures cellular proliferation via Bromodeoxyuridine (BrdU) incorporation after 168 hours of compound incubation. Cell lines tested include the JMJD2C gene amplified cell line KYSE-150. This is a quantitative ELISA assay measuring DNA incorporation of BrdU during S-phase as a direct readout of cellular proliferation.
Assay Principle: This is a colorimetric immunoassay for the quantification of cell proliferation. Cells treated for 168 hours with test compounds are assayed for their ability to go through S-phase as a measure of their proliferative potential.
Assay Method: The human KYSE-150 (SMAD4 mut, TP53 mut) esophageal carcinoma cell line was seeded at 2,000 cells/well on a 96-well tissue culture treated plate. After an overnight incubation, cells were treated with compound in an 11-point dilution series with final concentrations ranging from 100 μM to 2 nM. Cells were then incubated in the presence of compound for 168 hours. After compound incubation the cells were assayed using a BrdU Cell Proliferation ELISA (Roche). The cells were first incubated with BrdU labeling reagent for 2 hours. After 2 hours, the BrdU incorporated cells were fixed and denatured, probed with an anti-BrdU-Peroxidase antibody for 1.5 hours and washed. Finally, a tetramethylbenzidine peroxidase substrate was added to each well for 15 minutes followed by a H2SO4 stop solution. The plate was read at 450 nm, and the raw optical density data was transferred into XLFit (IDBS) for IC50 calculation using the formula: fit=(D+((Vmax*(x^n))/((x^n)+(Km^n))))

JMJD2C, sequence (Q9H3R0 2-372): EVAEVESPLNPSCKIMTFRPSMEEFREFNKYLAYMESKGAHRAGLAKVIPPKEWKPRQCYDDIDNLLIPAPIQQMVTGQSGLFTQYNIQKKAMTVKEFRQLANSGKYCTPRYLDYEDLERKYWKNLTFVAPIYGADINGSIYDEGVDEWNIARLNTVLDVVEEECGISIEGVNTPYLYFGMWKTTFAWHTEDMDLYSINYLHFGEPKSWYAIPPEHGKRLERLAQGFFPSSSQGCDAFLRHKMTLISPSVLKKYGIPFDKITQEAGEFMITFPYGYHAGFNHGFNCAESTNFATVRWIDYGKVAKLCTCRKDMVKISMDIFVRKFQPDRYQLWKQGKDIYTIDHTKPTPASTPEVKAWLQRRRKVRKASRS

Row | Structure (SMILES) | IC50 (JMJD2C) [nM] | IC50 [1] [nM]
1 | O=C(O)c1ccncc1NC[C@@H]1CCOc2cc(Oc3ccccc3)ccc21 [Example 48, 3-({[(4R)-7-phenoxy-3,4-dihydro-2H-1-benzopyran-4-yl]methyl}amino)pyridine-4-carboxylic acid] | 100 to 1000 | 1000 to 10000
2 | CC(c1ccccc1)c1ccc2c(c1)OCC[C@H]2CNc1cnccc1C(=O)O (stereo partly drawn) [Example 198, 3-({[(4R)-7-(1-phenylethyl)-3,4-dihydro-2H-1-benzopyran-4-yl]methyl}amino)pyridine-4-carboxylic acid] | 100 to 1000 | ≤ 100
3 | Cc1cc(F)ccc1Oc1ccc2c(c1)CCC[C@H]2CNc1cnccc1C(=O)O [Example 64, 3-({[(1R)-6-(4-fluoro-2-methylphenoxy)-1,2,3,4-tetrahydronaphthalen-1-yl]methyl}amino)pyridine-4-carboxylic acid] | 100 to 1000 | ≤ 100
4 | CN(CC1CC1)c1ccc2c(c1)CCC[C@H]2CNc1cnccc1C(=O)O [Example 120, 3-({[(1R)-6-[(cyclopropylmethyl)(methyl)amino]-1,2,3,4-tetrahydronaphthalen-1-yl]methyl}amino)pyridine-4-carboxylic acid] | 100 to 1000 | 100 to 1000
5 | O=C(O)c1ccncc1NCC1CCOc2cc(-c3ccc(C(F)(F)F)cc3)ccc21 (stereo not drawn) [Example 27, 3-[({7-[4-(trifluoromethyl)phenyl]-3,4-dihydro-2H-1-benzopyran-4-yl}methyl)amino]pyridine-4-carboxylic acid] | 1000 to 10000 | 1000 to 10000
6 | Cc1cc(N(C)c2ccc3c(c2)CCC[C@H]3CNc2cnccc2C(=O)O)no1 [Example 171, 3-({[(1R)-6-[methyl(5-methyl-1,2-oxazol-3-yl)amino]-1,2,3,4-tetrahydronaphthalen-1-yl]methyl}amino)pyridine-4-carboxylic acid] | 1000 to 10000 | > 10000
7 | CN(c1cccc(F)c1)c1ccc2c(c1)CCC[C@H]2CNc1cnccc1C(=O)O [Example 7, 3-({[(1R)-6-[(3-fluorophenyl)(methyl)amino]-1,2,3,4-tetrahydronaphthalen-1-yl]methyl}amino)pyridine-4-carboxylic acid] | 100 to 1000 | ≤ 100
8 | O=C(O)c1ccncc1NC[C@@H]1CCCc2cc(OC(F)F)ccc21 [Example 61, 3-({[(1R)-6-(difluoromethoxy)-1,2,3,4-tetrahydronaphthalen-1-yl]methyl}amino)pyridine-4-carboxylic acid] | 100 to 1000 | 1000 to 10000
9 | Cc1ccccc1-c1ccc2c(c1)OCC[C@H]2CNc1cnccc1C(=O)O [Example 101, 3-({[(4R)-7-(2-methylphenyl)-3,4-dihydro-2H-1-benzopyran-4-yl]methyl}amino)pyridine-4-carboxylic acid] | 100 to 1000 | ≤ 100
10 | Cc1ccc(S(=O)(=O)c2ccc3c(c2)CCC[C@H]3CNc2cnccc2C(=O)O)cc1 [Example 84, 3-({[(1R)-6-(4-methylbenzenesulfonyl)-1,2,3,4-tetrahydronaphthalen-1-yl]methyl}amino)pyridine-4-carboxylic acid] | 100 to 1000 | > 10000
11 | CCc1ccc2c(c1)CCC[C@H]2CNc1cnccc1C(=O)O [Example 91, 3-({[(1R)-6-ethyl-1,2,3,4-tetrahydronaphthalen-1-yl]methyl}amino)pyridine-4-carboxylic acid] | 100 to 1000 | 1000 to 10000
12 | Cc1ccc(Sc2ccc3c(c2)CCC[C@H]3CNc2cnccc2C(=O)O)cc1 [Example 79, 3-({[(1R)-6-[(4-methylphenyl)sulfanyl]-1,2,3,4-tetrahydronaphthalen-1-yl]methyl}amino)pyridine-4-carboxylic acid] | 1000 to 10000 | ≤ 100
13 | CN(c1ccc2c(c1)CCC[C@H]2CNc1cnccc1C(=O)O)c1ccn(C)n1 [Example 125, 3-({[(1R)-6-[methyl(1-methyl-1H-pyrazol-3-yl)amino]-1,2,3,4-tetrahydronaphthalen-1-yl]methyl}amino)pyridine-4-carboxylic acid] | 100 to 1000 | 100 to 1000
14 | O=C(O)c1ccncc1NCC1CCCc2cc(N3CCCc4ccccc43)ccc21 (stereo not drawn) [Example 4, 3-({[6-(1,2,3,4-tetrahydroquinolin-1-yl)-1,2,3,4-tetrahydronaphthalen-1-yl]methyl}amino)pyridine-4-carboxylic acid] | 1000 to 10000 | 100 to 1000

The remaining lines, values ahead:

Row | IC50 (JMJD2C) [nM] | IC50 [1] [nM] | Structure (SMILES)
15 | 100 to 1000 | ≤ 100 | CN(c1ccc(N2CC(F)(F)C2)cc1)c1ccc2c(c1)OCC[C@H]2CNc1cnccc1C(=O)O [Example 196, 3-({[(4R)-7-{[4-(3,3-difluoroazetidin-1-yl)phenyl](methyl)amino}-3,4-dihydro-2H-1-benzopyran-4-yl]methyl}amino)pyridine-4-carboxylic acid]
16 | 100 to 1000 | ≤ 100 | CN(c1ccc(-n2cccn2)cc1)c1ccc2c(c1)CCC[C@H]2CNc1cnccc1C(=O)O [Example 188, 3-({[(1R)-6-{methyl[4-(1H-pyrazol-1-yl)phenyl]amino}-1,2,3,4-tetrahydronaphthalen-1-yl]methyl}amino)pyridine-4-carboxylic acid]
17 | 100 to 1000 | ≤ 100 | Cc1ccc(N(C)c2ccc3c(c2)OCC[C@H]3CNc2cnccc2C(=O)O)cc1C [Example 206, 3-({[(4R)-7-[(3,4-dimethylphenyl)(methyl)amino]-3,4-dihydro-2H-1-benzopyran-4-yl]methyl}amino)pyridine-4-carboxylic acid]
18 | 100 to 1000 | ≤ 100 | CCOc1ccc(N(C)c2ccc3c(c2)OCC[C@H]3CNc2cnccc2C(=O)O)cc1 [Example 186, 3-({[(4R)-7-[(4-ethoxyphenyl)(methyl)amino]-3,4-dihydro-2H-1-benzopyran-4-yl]methyl}amino)pyridine-4-carboxylic acid]
19 | 100 to 1000 | 1000 to 10000 | Cc1ccc(-c2ccc3c(c2)OCC[C@H]3CNc2cnccc2C(=O)O)cc1 [Example 32, 3-({[(4R)-7-(4-methylphenyl)-3,4-dihydro-2H-1-benzopyran-4-yl]methyl}amino)pyridine-4-carboxylic acid]
20 | 100 to 1000 | ≤ 100 | C=Cc1ccc(N(C)c2ccc3c(c2)OCC[C@H]3CNc2cnccc2C(=O)O)cc1 [Example 176, 3-({[(4R)-7-[(4-ethenylphenyl)(methyl)amino]-3,4-dihydro-2H-1-benzopyran-4-yl]methyl}amino)pyridine-4-carboxylic acid]
21 | ≤ 100 | ≤ 100 | COc1ccc(N(C)c2ccc3c(c2)OCC[C@H]3CNc2cnccc2C(=O)O)cc1 [Example 178, 3-({[(4R)-7-[(4-methoxyphenyl)(methyl)amino]-3,4-dihydro-2H-1-benzopyran-4-yl]methyl}amino)pyridine-4-carboxylic acid]
22 | 100 to 1000 | 100 to 1000 | CN(c1ccc(-n2cccn2)cc1)c1ccc2c(c1)OCC[C@H]2CNc1cnccc1C(=O)O [Example 189, 3-({[(4R)-7-{methyl[4-(1H-pyrazol-1-yl)phenyl]amino}-3,4-dihydro-2H-1-benzopyran-4-yl]methyl}amino)pyridine-4-carboxylic acid]
23 | 100 to 1000 | ≤ 100 | CN(c1ccc(OCC(F)(F)F)cc1)c1ccc2c(c1)OCC[C@H]2CNc1cnccc1C(=O)O [Example 214, 3-({[(4R)-7-{methyl[4-(2,2,2-trifluoroethoxy)phenyl]amino}-3,4-dihydro-2H-1-benzopyran-4-yl]methyl}amino)pyridine-4-carboxylic acid]
24 | 100 to 1000 | ≤ 100 | Cc1ccc(N(C)c2ccc3c(c2)OCC[C@H]3CNc2cnccc2C(=O)O)cc1F [Example 151, 3-({[(4R)-7-[(3-fluoro-4-methylphenyl)(methyl)amino]-3,4-dihydro-2H-1-benzopyran-4-yl]methyl}amino)pyridine-4-carboxylic acid]
25 | 100 to 1000 | 100 to 1000 | CN(c1ccc2c(c1)COC2)c1ccc2c(c1)OCC[C@H]2CNc1cnccc1C(=O)O [Example 127, 3-({[(4R)-7-[(1,3-dihydro-2-benzofuran-5-yl)(methyl)amino]-3,4-dihydro-2H-1-benzopyran-4-yl]methyl}amino)pyridine-4-carboxylic acid]
26 | 100 to 1000 | 100 to 1000 | CN(c1cccc(C#N)c1)c1ccc2c(c1)OCC[C@H]2CNc1cnccc1C(=O)O [Example 117, 3-({[(4R)-7-[(3-cyanophenyl)(methyl)amino]-3,4-dihydro-2H-1-benzopyran-4-yl]methyl}amino)pyridine-4-carboxylic acid]
27 | 100 to 1000 | 100 to 1000 | Cc1cccc(-c2ccc3c(c2)OCC[C@H]3CNc2cnccc2C(=O)O)c1 [Example 30, 3-({[(4R)-7-(3-methylphenyl)-3,4-dihydro-2H-1-benzopyran-4-yl]methyl}amino)pyridine-4-carboxylic acid]
